Source: patent publication US20140328795A1, “VIRUCIDAL SMALL MOLECULE AND USES THEREOF” (The Texas A&M University System, priority 2012, published 2014)
“Also recorded” adds a separate entry of the source. Read-outs that look alike come from different tables or passages of the source.

Tests used:
primary HIV-1 isolates = test: microbe, parasite or virus in culture; type: cell-based; details: Human immunodeficiency virus 1, TZM-bl
HIV-2 = HIV-2 infectivity assay in TZM-bl cells (β-galactosidase); type: cell-based; details: Human immunodeficiency virus 2, TZM-bl, PD in DMEM with 10% fetal bovine serum, IC90 per footnote, read-out: IC50 (the source's name)
[1] = test system: commensal Lactobacillus species; test: Lactobacillus toxicity testing, all strains together; type: cell-based
Protocol: Reference strains of L. crispatus and L. jensenii were obtained from the ATCC (Manassas, Va.) and cultured on Columbia blood agar plates at 35° C. in air enriched with 6% CO2. Bacterial suspensions were prepared in saline or ACES buffer to a density of 2 McFarland units (˜2×10^8 bacteria/mL), and exposed to PD (300 μM) or DMSO (10%) for 30 minutes at 37° C. After incubation, the cells were serially diluted in ACES buffer, pH 7.0 (Sigma-Aldrich, St. Louis, Mo.) and plated on blood agar plates to quantify colony forming unit per mL (CFU/mL)
Different bacterial strains were incubated with 300 μM PD or solvent DMSO-containing control media at 37° C. for 30 min and plated on blood agar plates to estimate their corresponding colony forming units per ml (CFU/ml). Less than 1 log difference between control and test CFU is considered non-toxic17.

HCVcc = type: cell-based, HCV
Sindbis virus (SINV) = type: cell-based
Dengue virus (DenV) = test: Dengue virus plaque assay on Vero cells; type: cell-based, Serotype 2 New Guinea C strain Dengue virus; details: 300 μM PD
VSV-Gpp = type: physicochemical
HSV-1 virions = details: 0.2 μM PD, 30 min, 37° C.; 20-70% sucrose gradient
Protocol: FIGS. 16A-16B depict effectiveness of PD against HSV. PD blocks HSV infection. Vero cells were seeded in a 24-well plate and infected with HSV-1 (Syn 17) or HSV-2 (333) (FIG. 16A). PD (200 nM) or control DMSO (0.01%) was added immediately to the target cells after viral inoculation. Two days later, the cells were harvested, stained with antibody against HSV glycoprotein gD and analyzed by flow cytometry. Error bars represent standard deviation of triplicate samples. Results are representative of two independent experiments. PD Destabilizes HSV particles (FIG. 16B). […] The amount of HSV glycoprotein gpB in each fraction was analyzed by ELISA. The sucrose gradient density of each fraction was determined by measuring the refractive index. […]
HSV was concentrated by loading 30 mL HSV-1-infected Vero cell supernatant on a 20% sucrose cushion and centrifuged in a SW28 rotor at 20,000 rpm for 1 h at 4° C. […] After ultracentrifugation at 30,000 rpm for 24 h in a SW-41 T rotor at 4° C., fractions of 1 mL were collected and analyzed for HSV gpB content by enzyme-linked immunosorbent assay (ELISA) using homemade rabbit polyclonal antibody. The density of each fraction from the sucrose gradient was determined by measuring the refractive index.
Applicants also investigated whether PD can disrupt the structure of HSV virions. […] Each gradient fraction was analyzed for HSV glycoprotein gpB by ELISA. […]

[2] = test system: primary CD4+ T-lymphocytes, macrophages and dendritic cells; test: Primary cells toxicity testing (LDH release); details: up to 14 days

N=C1Sc2ccccc2C2=NCCCN12 [PD, PD 404,182] gave an IC90 (primary HIV-1 isolates; HIV-1 92HT599 (clade B, X4), PD in DMEM with 10% fetal bovine serum, IC90 per footnote) of 5.8 µM, an IC90 (primary HIV-1 isolates; HIV-1 92HT599 (clade B, X4), PD in cervical fluids, IC90 per footnote) of 6.4 µM and an IC90 (primary HIV-1 isolates; HIV-1 92HT599 (clade B, X4), PD in seminal plasma, IC90 per footnote) of 6.31 µM. The IC90 (primary HIV-1 isolates; HIV-1 92RW021 (clade A, R5), PD in DMEM with 10% fetal bovine serum, IC90 per footnote) was 3.8 µM, the IC90 (primary HIV-1 isolates; HIV-1 92RW021 (clade A, R5), PD in cervical fluids, IC90 per footnote) was 4.4 µM and the IC90 (primary HIV-1 isolates; HIV-1 92TH003 (clade E, R5), PD in DMEM with 10% fetal bovine serum, IC90 per footnote) was 8.6 µM. For the same compound, the IC90 (primary HIV-1 isolates; HIV-1 92TH003 (clade E, R5), PD in cervical fluids, IC90 per footnote) was 7.8 µM, the IC90 (primary HIV-1 isolates; HIV-1 92TH003 (clade E, R5), PD in seminal plasma, IC90 per footnote) was 6.73 µM and the IC90 (primary HIV-1 isolates; HIV-1 92TH029 (clade B, R5), PD in DMEM with 10% fetal bovine serum, IC90 per footnote) was 2.8 µM. For the same compound, the IC90 (primary HIV-1 isolates; HIV-1 92TH029 (clade B, R5), PD in cervical fluids, IC90 per footnote) was 3.3 µM, the IC90 (primary HIV-1 isolates; HIV-1 92TH029 (clade B, R5), PD in seminal plasma, IC90 per footnote) was 2.95 µM and the IC50 (primary HIV-1 isolates; HIV-1 92UG024 (clade D, X4), PD in DMEM with 10% fetal bovine serum) was 0.33 µM. The IC90 (primary HIV-1 isolates; HIV-1 92UG024 (clade D, X4), PD in DMEM with 10% fetal bovine serum, IC90 per footnote) was 1.4 µM, the IC90 (primary HIV-1 isolates; HIV-1 92UG024 (clade D, X4), PD in cervical fluids, IC90 per footnote) was 1.8 µM and the IC90 (primary HIV-1 isolates; HIV-1 92UG024 (clade D, X4), PD in seminal plasma, IC90 per footnote) was 1.68 µM. It also gave an IC90 (primary HIV-1 isolates; HIV-1 92UG029 (clade A, X4), PD in DMEM with 10% fetal bovine serum, IC90 per footnote) of 4.4 µM, an IC90 (primary HIV-1 isolates; HIV-1 92UG029 (clade A, X4), PD in cervical fluids, IC90 per footnote) of 5.3 µM and an IC90 (primary HIV-1 isolates; HIV-1 92UQ085 (clade D, R5), PD in DMEM with 10% fetal bovine serum, IC90 per footnote) of 5.3 µM. It also gave an IC90 (primary HIV-1 isolates; HIV-1 92UQ085 (clade D, R5), PD in cervical fluids, IC90 per footnote) of 6.7 µM, an IC90 (primary HIV-1 isolates; HIV-1 92UQ085 (clade D, R5), PD in seminal plasma, IC90 per footnote) of 6.67 µM and an IC90 (primary HIV-1 isolates; HIV-1 93BR020 (clade F, X4), PD in DMEM with 10% fetal bovine serum, IC90 per footnote) of 6.8 µM. The IC90 (primary HIV-1 isolates; HIV-1 93BR020 (clade F, X4), PD in cervical fluids, IC90 per footnote) was 7.6 µM, the IC90 (primary HIV-1 isolates; HIV-1 93BR020 (clade F, X4), PD in seminal plasma, IC90 per footnote) was 7.19 µM and the IC90 (primary HIV-1 isolates; HIV-1 93BR028 (clade F, R5), PD in DMEM with 10% fetal bovine serum, IC90 per footnote) was 3.6 µM. For the same compound, the IC90 (primary HIV-1 isolates; HIV-1 93BR028 (clade F, R5), PD in cervical fluids, IC90 per footnote) was 4.6 µM, the IC90 (primary HIV-1 isolates; HIV-1 93BR028 (clade F, R5), PD in seminal plasma, IC90 per footnote) was 3.72 µM and the IC90 (primary HIV-1 isolates; HIV-1 93IN101 (clade C, R5), PD in DMEM with 10% fetal bovine serum, IC90 per footnote) was 5.1 µM. For the same compound, the IC90 (primary HIV-1 isolates; HIV-1 93IN101 (clade C, R5), PD in cervical fluids, IC90 per footnote) was 5.6 µM, the IC90 (primary HIV-1 isolates; HIV-1 93IN101 (clade C, R5), PD in seminal plasma, IC90 per footnote) was 5.38 µM and the IC90 (primary HIV-1 isolates; HIV-1 93TH083 (clade E, X4), PD in DMEM with 10% fetal bovine serum, IC90 per footnote) was 6.3 µM. The IC90 (primary HIV-1 isolates; HIV-1 93TH083 (clade E, X4), PD in cervical fluids, IC90 per footnote) was 6.4 µM, the IC90 (primary HIV-1 isolates; HIV-1 93TH083 (clade E, X4), PD in seminal plasma, IC90 per footnote) was 6.66 µM and the IC90 (primary HIV-1 isolates; HIV-1 98IN017 (clade C, X4), PD in cervical fluids, IC90 per footnote) was 2.4 µM. The IC90 (primary HIV-1 isolates; HIV-1 98IN017 (clade C, X4), PD in seminal plasma, IC90 per footnote) was 2.09 µM, the IC90 (primary HIV-1 isolates; HIV-1 Jv1063 (clade G, R5), PD in DMEM with 10% fetal bovine serum, IC90 per footnote) was 3.8 µM and the IC50 (primary HIV-1 isolates; HIV-1 RU132 (clade G, R5), PD in DMEM with 10% fetal bovine serum) was 0.8 µM. It also gave an IC90 (primary HIV-1 isolates; HIV-1 RU132 (clade G, R5), PD in DMEM with 10% fetal bovine serum, IC90 per footnote) of 3.1 µM, an IC90 (primary HIV-1 isolates; HIV-1 RU132 (clade G, R5), PD in cervical fluids, IC90 per footnote) of 3.8 µM and an IC90 (primary HIV-1 isolates; HIV-1 RU132 (clade G, R5), PD in seminal plasma, IC90 per footnote) of 3.26 µM. It also gave an IC50 (primary HIV-1 isolates; broad range of primary HIV-1 isolates as well as HIV-2) of roughly 1 µM, an IC50 (primary HIV-1 isolates; read-out: IC50, range over the tested subtypes of HIV-1, PD in DMEM, TZM-bl) of 0.33 to 1.8 µM and an IC50 (primary HIV-1 isolates; read-out: IC50, range over the tested subtypes of HIV-1, PD in cervical fluid, TZM-bl) of 0.61 to 2.3 µM. The IC90 (primary HIV-1 isolates; read-out: IC90, range over the tested subtypes of HIV-1, PD in DMEM, TZM-bl) was 1.4 to 6.6 µM, the IC90 (primary HIV-1 isolates; read-out: IC90, range over the tested subtypes of HIV-1, PD in cervical fluid, TZM-bl) was 1.8 to 7.5 µM and the IC50 (primary HIV-1 isolates; several isolates of HIV-1 and SIV in TZM-bl cells, PD diluted in DMEM or cervical fluid) was roughly 1 µM. The IC90 (HIV-2; HIV-2OD 0310342) was 4.7 µM, the IC90 (HIV-2; HIV-27312A) was 6.6 µM and the “effect on Lactobacillus strains” value ([1]; 300 μM PD, 37° C., 30 min) was “no adverse effect”. The CC50 ([1]; vaginal commensal bacteria Lactobacilli) was greater than 300 µM, the “attachment of PD-treated HCVcc to cells” value (HCVcc) was “binds to cells comparably to control DMSO-treated virus; also recorded: slight decrease in attachment” and the “effect on infectivity of SINV” value (Sindbis virus (SINV)) was “no significant inhibitory effect”. For the same compound, the “effect on infectivity of DenV” value (Dengue virus (DenV)) was “no significant inhibitory effect”, the antiviral activity lost (VSV-Gpp) was “no activity loss” and the stability (VSV-Gpp; pH 4) was “highly stable”. The “sedimentation of HSV gpB in sucrose gradient” value (HSV-1 virions) was “all gpB distributed to the top of the gradient” and the CC50 [2] was greater than 300 µM.
